Source: patent publication US5824540A, “Pseudomonas putida strain with dioxygenase activity” (Merck & Co., Inc., priority 1996, dated 1998)

Test system: P. putida F1
Experiment: Growth of P. putida F1 test tube cultures in MMC medium with ICR 191 (mutation procedure 1)
Format: cell-based, Pseudomonas putida
Settings: 16 to 18 hour incubation, 30° C., dark
Procedure: In procedure 1, cells were grown overnight in TSB at 30° C. and diluted 10^-4 with phosphate buffer (100 mM, pH 7.2). Several 18×150 mm test tubes containing 3 ml of MMC medium plus 0 (control), 10, 20, 30, 40, 50, 75, or 100 mg/l ICR 191 were inoculated with 0.1 ml of the diluted inoculum. Test tube cultures were incubated in the dark at 30° C. with 220 RPM agitation. […] The cells from 20 mg/l ICR 191 culture were harvested by centrifugation, washed twice with phosphate buffer.

COc1ccc2nc3cc(Cl)ccc3c(NCCCNCCCl)c2c1 [ICR 191]
effect on growth (10 mg/l ICR 191): no detectable effect on growth | level of growth relative to control (20 mg/l ICR 191): approximately half that of the control | growth of culture (30 mg/l ICR 191): a trace of growth | growth of culture (ICR 191 concentrations above 30 mg/l): completely inhibited growth
